{"source": "patent US5834279A", "about": "(priority 1997, dated 1998)", "key": {"[1]": {"target": "T1, M. tuberculosis ribonucleotide reductase (Mycobacterium tuberculosis, UniProt P9WH75)", "assay": "biochemical", "assay_type": "biochemical", "conditions": "for Maximal stimulated ribonucleotide reduction (Example 2): Example 2, written in present tense; for Maximal stimulated CDP reduction: equimolar R1 and R2, DTT as reductant"}, "[2]": {"target": "M. tuberculosis topoisomerase I (Mycobacterium tuberculosis, UniProt P9WG49)", "sequence (P9WG49 2-896, added parts left off)": "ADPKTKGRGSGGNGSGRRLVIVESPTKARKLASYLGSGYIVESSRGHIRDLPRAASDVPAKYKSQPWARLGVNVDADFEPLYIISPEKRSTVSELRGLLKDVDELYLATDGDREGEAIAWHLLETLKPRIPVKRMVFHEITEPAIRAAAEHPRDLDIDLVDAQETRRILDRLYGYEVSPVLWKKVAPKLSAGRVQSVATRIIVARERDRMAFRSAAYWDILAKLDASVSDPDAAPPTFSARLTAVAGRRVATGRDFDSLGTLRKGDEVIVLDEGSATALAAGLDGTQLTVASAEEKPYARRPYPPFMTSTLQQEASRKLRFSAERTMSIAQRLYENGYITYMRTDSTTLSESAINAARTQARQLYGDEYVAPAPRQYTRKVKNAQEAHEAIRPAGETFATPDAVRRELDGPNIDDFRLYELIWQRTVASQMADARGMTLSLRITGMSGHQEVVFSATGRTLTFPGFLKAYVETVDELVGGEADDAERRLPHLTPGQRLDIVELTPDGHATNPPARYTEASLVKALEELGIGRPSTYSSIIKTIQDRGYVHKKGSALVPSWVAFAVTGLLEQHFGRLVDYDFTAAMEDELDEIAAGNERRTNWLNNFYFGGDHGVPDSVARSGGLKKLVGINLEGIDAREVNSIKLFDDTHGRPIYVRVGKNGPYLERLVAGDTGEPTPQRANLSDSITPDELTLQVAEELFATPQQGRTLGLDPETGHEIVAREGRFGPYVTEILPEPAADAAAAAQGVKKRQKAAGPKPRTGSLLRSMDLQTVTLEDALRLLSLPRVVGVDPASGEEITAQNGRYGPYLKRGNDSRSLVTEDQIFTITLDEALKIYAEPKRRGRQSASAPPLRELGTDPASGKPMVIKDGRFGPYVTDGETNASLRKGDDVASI", "assay_type": "biochemical", "conditions": "150 ng enzyme, 1.0 mM MgCl2"}, "[3]": {"target": "T1, M. tuberculosis ribonucleotide reductase", "assay_type": "biochemical"}, "[4]": {"target": "M. tuberculosis ribonucleotide reductase R1 (Mycobacterium tuberculosis, UniProt P9WH75)", "sequence (P9WH75 3-725 limits assumed)": "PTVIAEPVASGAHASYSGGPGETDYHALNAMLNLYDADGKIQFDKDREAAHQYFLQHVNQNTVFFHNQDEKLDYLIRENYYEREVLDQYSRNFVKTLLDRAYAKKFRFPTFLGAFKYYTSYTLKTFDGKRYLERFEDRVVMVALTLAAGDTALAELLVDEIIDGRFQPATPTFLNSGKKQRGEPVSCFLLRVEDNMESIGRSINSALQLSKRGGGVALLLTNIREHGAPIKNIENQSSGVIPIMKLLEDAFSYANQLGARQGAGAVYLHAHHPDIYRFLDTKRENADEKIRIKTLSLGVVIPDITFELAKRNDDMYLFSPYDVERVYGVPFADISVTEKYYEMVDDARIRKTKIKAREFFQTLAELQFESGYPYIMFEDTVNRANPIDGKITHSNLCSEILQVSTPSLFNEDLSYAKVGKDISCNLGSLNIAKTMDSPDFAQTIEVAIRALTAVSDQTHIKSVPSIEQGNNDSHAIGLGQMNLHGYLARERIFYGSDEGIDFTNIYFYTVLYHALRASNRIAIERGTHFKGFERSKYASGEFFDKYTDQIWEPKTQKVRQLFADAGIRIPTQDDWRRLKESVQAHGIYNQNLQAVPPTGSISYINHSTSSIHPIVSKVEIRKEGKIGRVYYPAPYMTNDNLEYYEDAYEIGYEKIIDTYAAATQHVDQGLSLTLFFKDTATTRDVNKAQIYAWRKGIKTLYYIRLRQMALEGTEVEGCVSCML", "assay_type": "binding", "conditions": "5 mM ATP"}, "[5]": {"target": "T2, calf thymus ribonucleotide reductase (Bos taurus, UniProt E1BI58)", "T2 construct": "slightly higher than that found for calf thymus; host or cells: calf thymus", "T2 sequence (E1BI58 entry or part of it)": "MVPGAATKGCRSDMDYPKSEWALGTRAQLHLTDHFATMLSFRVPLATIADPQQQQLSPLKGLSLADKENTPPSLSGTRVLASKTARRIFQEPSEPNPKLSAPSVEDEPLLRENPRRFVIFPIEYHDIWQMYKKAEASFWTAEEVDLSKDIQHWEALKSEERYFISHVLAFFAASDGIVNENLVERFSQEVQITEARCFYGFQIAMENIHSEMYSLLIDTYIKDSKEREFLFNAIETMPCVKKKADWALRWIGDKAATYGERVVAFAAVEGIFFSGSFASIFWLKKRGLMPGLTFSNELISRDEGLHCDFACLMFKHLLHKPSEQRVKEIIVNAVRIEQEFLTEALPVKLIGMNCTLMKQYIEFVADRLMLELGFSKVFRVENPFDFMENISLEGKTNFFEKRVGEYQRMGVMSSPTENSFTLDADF", "conditions": "cited from earlier work"}, "[6]": {"target": "Salmonella ribonucleotide reductase (Salmonella typhimurium, UniProt P17424)", "sequence (P17424 whole entry)": "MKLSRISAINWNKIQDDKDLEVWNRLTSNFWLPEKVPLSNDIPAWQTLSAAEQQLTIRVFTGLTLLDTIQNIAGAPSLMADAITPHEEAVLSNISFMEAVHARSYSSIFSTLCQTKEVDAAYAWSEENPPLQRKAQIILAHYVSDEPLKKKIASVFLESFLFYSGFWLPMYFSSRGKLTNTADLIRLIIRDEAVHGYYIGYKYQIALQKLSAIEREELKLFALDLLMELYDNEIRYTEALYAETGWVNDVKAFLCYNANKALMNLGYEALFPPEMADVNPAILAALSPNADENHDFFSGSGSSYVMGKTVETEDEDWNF", "conditions": "cited from earlier work"}, "M. smegmatis": {"tested_on": "M. smegmatis", "conditions": "200 μg/ml hydroxyurea; cited from earlier work"}, "[7]": {"target": "T3, mammalian enzyme (ribonucleotide reductase) (Homo sapiens, UniProt P23921)", "T3 sequence (P23921 1-792)": "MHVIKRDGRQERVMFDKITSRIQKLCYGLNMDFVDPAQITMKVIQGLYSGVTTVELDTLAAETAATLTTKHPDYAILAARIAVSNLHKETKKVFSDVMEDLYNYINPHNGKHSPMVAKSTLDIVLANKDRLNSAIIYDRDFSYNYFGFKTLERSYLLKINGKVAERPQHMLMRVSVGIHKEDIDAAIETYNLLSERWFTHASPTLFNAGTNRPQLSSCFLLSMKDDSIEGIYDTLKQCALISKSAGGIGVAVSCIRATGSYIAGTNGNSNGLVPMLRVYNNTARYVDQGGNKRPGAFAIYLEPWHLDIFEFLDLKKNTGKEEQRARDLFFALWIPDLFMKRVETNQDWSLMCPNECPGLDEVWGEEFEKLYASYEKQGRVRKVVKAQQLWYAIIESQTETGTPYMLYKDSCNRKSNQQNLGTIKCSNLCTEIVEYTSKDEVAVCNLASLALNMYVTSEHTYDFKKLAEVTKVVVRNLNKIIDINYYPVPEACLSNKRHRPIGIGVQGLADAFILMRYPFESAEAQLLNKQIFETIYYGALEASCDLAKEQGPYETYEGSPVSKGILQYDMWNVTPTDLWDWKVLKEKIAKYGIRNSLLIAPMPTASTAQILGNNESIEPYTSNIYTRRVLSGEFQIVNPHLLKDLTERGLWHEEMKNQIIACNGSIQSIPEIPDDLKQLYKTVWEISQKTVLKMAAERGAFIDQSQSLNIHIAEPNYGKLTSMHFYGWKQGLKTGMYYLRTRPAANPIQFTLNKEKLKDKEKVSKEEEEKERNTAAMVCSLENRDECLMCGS", "conditions": "cited from earlier work"}, "[8]": {"target": "T4, nrdE/nrdF ribonucleotide reductase (Salmonella typhimurium, UniProt Q08698)", "T4 construct": "host or cells: recombinant expression plasmid system (as reported)", "T4 sequence (P17424 whole entry)": "as the sequence (P17424 whole entry) above", "T4 sequence (Q08698 whole entry)": "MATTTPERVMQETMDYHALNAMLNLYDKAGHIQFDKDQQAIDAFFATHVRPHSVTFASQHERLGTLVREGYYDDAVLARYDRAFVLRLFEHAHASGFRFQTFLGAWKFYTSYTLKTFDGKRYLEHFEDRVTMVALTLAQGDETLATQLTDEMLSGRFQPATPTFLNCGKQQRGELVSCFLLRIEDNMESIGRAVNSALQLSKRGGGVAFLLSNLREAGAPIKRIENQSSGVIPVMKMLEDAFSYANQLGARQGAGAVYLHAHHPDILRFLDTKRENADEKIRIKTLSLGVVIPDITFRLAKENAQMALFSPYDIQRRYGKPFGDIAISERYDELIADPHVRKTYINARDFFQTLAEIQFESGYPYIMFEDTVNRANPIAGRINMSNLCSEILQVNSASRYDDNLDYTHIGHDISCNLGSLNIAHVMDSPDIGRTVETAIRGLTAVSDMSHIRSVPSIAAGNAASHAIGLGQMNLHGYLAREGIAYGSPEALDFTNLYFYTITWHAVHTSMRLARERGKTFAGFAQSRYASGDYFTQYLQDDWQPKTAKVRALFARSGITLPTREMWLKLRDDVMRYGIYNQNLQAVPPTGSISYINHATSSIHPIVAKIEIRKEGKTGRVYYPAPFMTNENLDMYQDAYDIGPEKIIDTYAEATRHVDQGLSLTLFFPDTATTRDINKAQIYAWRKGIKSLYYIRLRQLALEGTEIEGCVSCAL", "conditions": "cited from earlier work"}, "[9]": {"target": "nrdA/nrdB ribonucleotide reductase (Escherichia coli, UniProt P00452)", "sequence (P69924 2-376)": "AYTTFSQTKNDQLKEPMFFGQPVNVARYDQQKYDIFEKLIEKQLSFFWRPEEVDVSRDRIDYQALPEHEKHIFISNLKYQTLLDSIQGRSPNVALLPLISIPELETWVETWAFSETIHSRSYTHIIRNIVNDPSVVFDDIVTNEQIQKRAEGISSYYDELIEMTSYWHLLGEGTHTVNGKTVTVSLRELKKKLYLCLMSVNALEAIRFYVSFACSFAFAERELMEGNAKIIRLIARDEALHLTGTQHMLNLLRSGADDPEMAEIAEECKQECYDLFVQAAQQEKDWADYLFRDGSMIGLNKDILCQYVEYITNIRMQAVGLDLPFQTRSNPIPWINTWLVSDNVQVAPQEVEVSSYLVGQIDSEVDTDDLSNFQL", "sequence (P00452 whole entry)": "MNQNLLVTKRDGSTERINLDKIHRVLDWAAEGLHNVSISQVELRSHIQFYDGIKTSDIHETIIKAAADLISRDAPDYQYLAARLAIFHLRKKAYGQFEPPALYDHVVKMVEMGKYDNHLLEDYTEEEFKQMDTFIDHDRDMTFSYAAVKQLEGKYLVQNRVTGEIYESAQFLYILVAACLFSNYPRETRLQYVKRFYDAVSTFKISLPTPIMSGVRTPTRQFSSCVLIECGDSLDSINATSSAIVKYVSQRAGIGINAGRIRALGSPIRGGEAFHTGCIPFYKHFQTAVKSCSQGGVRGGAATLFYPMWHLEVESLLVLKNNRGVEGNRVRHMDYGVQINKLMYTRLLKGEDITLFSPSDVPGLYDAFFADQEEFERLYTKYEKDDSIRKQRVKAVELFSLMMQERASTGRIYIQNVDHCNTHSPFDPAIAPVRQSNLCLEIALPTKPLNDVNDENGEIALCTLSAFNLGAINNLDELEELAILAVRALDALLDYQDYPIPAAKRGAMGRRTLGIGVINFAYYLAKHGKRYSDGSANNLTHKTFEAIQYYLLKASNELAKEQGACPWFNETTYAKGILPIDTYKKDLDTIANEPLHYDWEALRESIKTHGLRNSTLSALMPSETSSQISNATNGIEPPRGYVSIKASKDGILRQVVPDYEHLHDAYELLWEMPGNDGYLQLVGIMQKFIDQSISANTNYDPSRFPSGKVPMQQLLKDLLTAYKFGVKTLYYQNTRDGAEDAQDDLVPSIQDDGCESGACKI", "conditions": "negative effector at higher concentrations; cited from earlier work"}, "[10]": {"conditions": "5 mg reconstituted RR (1:1 R1 to R2-2), 6 mM CDP, 2 mM ATP, 0.0-0.5 mM inhibitor, read-out: IC50, inhibition of CDP reduction activity by C-terminal R2 peptides"}}, "note": "Like-named read-outs stand apart in the source and are kept apart here."}
{"compound": "Nc1ncnc2c1ncn2[C@@H]1O[C@H](COP(=O)(O)OP(=O)(O)OP(=O)(O)O)[C@@H](O)[C@H]1O", "note": "[ATP]", "values": [{"measurement": "Concentration above which the effector inhibited the activity", "setting": "[1]", "result": "higher than 2 mM"}, {"measurement": "Optimum concentration of activator for CDP reduction", "setting": "[1]", "result": "1 to 2", "unit": "mM"}, {"measurement": "Maximal stimulated ribonucleotide reduction (Example 2)", "setting": "[1]", "result": "up to 45 pmoles deoxyribonucleotide in 20 min"}, {"measurement": "Maximal stimulated CDP reduction", "setting": "[1]", "result": "up to 45 pmoles dCDP in 20 min"}, {"measurement": "Effect of ATP on DNA relaxing activity", "setting": "[2]; 0.4-1.6 mM ATP", "result": "inhibited the reaction"}, {"measurement": "Effect of nucleotide effector on ribonucleotide reductase activity of native enzyme", "setting": "[3]", "result": "stimulated"}, {"measurement": "Labeling of the 84,000 Da band by [alpha-32P]dATP", "setting": "[4]", "result": "completely inhibited"}]}
{"compound": "Ac-EDDDWDF-OH [R2P7-2, Acetyl-EDDDWDF-OH]", "values": [{"measurement": "IC50", "setting": "[1]; [10]", "result": "15 to 20", "unit": "µM"}]}
{"compound": "NCCCCNCCCN", "note": "[spermidine]", "values": [{"measurement": "DNA relaxing activity in the presence of spermidine", "setting": "[2]; 4.0 mM spermidine", "result": "almost completely inhibited"}]}
{"compound": "Ac-TDTDWDF-OH [R2P7-1, Acetyl-TDTDWDF-OH]", "values": [{"measurement": "IC50", "setting": "[1]; [10]", "result": 100, "unit": "µM"}]}
{"compound": "NC(=O)NO", "note": "[hydroxyurea]", "values": [{"measurement": "IC50", "setting": "[1]; read-out: IC50, inhibition of the activity of CDP reduction by hydroxyurea", "result": 2000, "unit": "µM"}, {"measurement": "IC90", "setting": "[5]", "result": 1000, "unit": "µM"}, {"measurement": "IC50", "setting": "[6]", "result": "~500", "unit": "µM"}, {"measurement": "Growth of M. smegmatis", "setting": "M. smegmatis", "result": "completely inhibited"}]}
{"compound": "Nc1ncnc2c1ncn2[C@H]1C[C@H](O)[C@@H](COP(=O)(O)OP(=O)(O)OP(=O)(O)O)O1", "note": "[dATP]", "values": [{"measurement": "Maximal stimulated ribonucleotide reduction (Example 2)", "setting": "[1]", "result": "≤ 13 pmoles deoxyribonucleotide in 20 min"}, {"measurement": "Maximal stimulated CDP reduction", "setting": "[1]", "result": "≤ 13", "unit": "pmoles dCDP in 20 min"}, {"measurement": "Highest concentration at which the effector still stimulated reduction", "setting": "[1]; inhibition at higher concentrations", "result": "≤ 1", "unit": "mM"}, {"measurement": "Effect of nucleotide effector on ribonucleotide reductase activity of native enzyme", "setting": "[3]", "result": "inhibited"}, {"measurement": "dATP concentration above which inhibition is seen in the mammalian system", "setting": "[7]", "result": "greater than 0.1 mM"}, {"measurement": "Concentration up to which dATP is a positive allosteric activator, nrdE/nrdF system", "setting": "[8]", "result": "up to 1 mM"}, {"measurement": "Concentration up to which dATP activates, nrdA/nrdB system", "setting": "[9]", "result": "up to 1 uM"}]}
